row,SMILES,melting point [°C]
1,O=C(NC1CCCCC1)NS(=O)(=O)c1ccc(CCn2cnc3ccccc3c2=O)cc1,228 to 230
2,O=c1[nH]c2cscc2c(=O)c2cscc12,267 to 270
3,COc1ccc(-c2cc(C(Nn3cnnc3)c3ccccc3OS(N)(=O)=O)ccc2C#N)cc1 (stereo not drawn),184 to 186
4,C=C1COc2ccc(C(C)=O)cc2C(Cc2ccccc2)(S(=O)(=O)c2ccccc2)C1 (stereo not drawn),131 to 132
5,COc1ccc2c(c1)CNN=C2Cc1c(Cl)cncc1Cl,181 to 183
6,CC1CN(C)Cc2cc(-c3ccccc3)n(Cc3ccccc3)c21 (stereo not drawn),90 to 91
7,COC(=O)c1cc(OCC=C(Cl)Cl)cc(Cl)c1OC,103
8,CCN1C[C@@H](C(=O)OC(C)(C)C)NC1=O,86 to 87
9,NC(=O)c1cc(-c2cccc3cc(Cc4cc(F)cc(Cl)c4)sc23)ccc1F,169 to 170
10,O=C(O)c1ccc([N+](=O)[O-])cn1,210 to 211
11,CC(=O)OC1CC2CCC3C(CCC4(C)C(O)C(N5CCCCC5)CC34)C2(C)CC1N1CCOCC1 (stereo not drawn),148 to 152
12,CCN(C(=O)C(F)(F)F)c1ccc(C(=O)O)cc1,132
13,Cc1cn2cccc(OCc3c(Cl)ccc(S(=O)(=O)N4CCC[C@H]4C(=O)N4CCN(C(=O)c5ccc(C=NN)cc5)CC4)c3Cl)c2n1,159 to 161
14,CSc1sc2ccccc2c1C=O,50 to 53
15,O=C(O)c1cccc(CN2CCN(c3ccc(NC(=O)c4ccccc4-c4ccc(C(F)(F)F)cc4)cc3)CC2)c1,225 to 227
16,N[C@H](Cc1cccc(OC(F)(F)C(F)F)c1)[C@@H](O)c1csc(-c2ccccc2)n1 (racemic),128 to 130
17,C1=CC(c2ccccc2)Nc2ccccc21 (stereo not drawn),75
18,CC(C)(C#N)c1ccc(C(=O)C2CC2)cc1,80 to 82
19,CC(C)C[C@H](NC(=O)OCC1c2ccccc2-c2ccccc21)C(=O)N[C@H]1CCOC1OCc1ccc2ccccc2c1 (stereo partly drawn),79 to 80
20,COC(=O)c1cccc(S(=O)(=O)Cc2c(O[C@H](Cn3ccnc3)c3ccccc3)ccc3c2CCCC3=O)c1,85
21,Cc1ccc(CNC(=O)c2cc3c(ccc4cnn(C[C@H](C)N)c43)o2)o1,118 to 120
22,COC(=O)N1CC[C@H](Nc2nc3cncnc3n2Cc2ccc(F)cc2)[C@H](C)C1 (relative stereo),152

row,SMILES,melting point [°C]
1,CN(C)C=NC(=N[N+](=O)[O-])N(C)Cc1ccc(Cl)nc1,85 to 89
2,COc1cccc2oc(C(=O)C34CC5CC(CC(C5)C3)C4)cc12,96 to 98
3,N#Cn1c(-c2ccc(Cl)cc2)c([N+](=O)[O-])c(-c2ccc(Cl)c(Cl)c2)c1C(F)(F)F,98 to 100
4,CS(=O)(=O)Nc1cccc(-c2cccc(-c3nc(-c4ccc(C(F)(F)F)cc4)cc(C(F)(F)F)n3)c2)c1,191
5,C[C@]1(CN2CCN(S(=O)(=O)CCCc3ccc(Cl)cc3)CC2)Cn2cc([N+](=O)[O-])nc2O1,150 to 151
6,Nn1nc(-c2ccc(Cl)cc2)cc1OCCN1CCOCC1,120 to 121
7,COc1ccc2c(c1OC)CC[C@H]1[C@H]2CCCN1CCc1ccccc1 (relative stereo),110 to 111
8,Cn1c(=O)n2nc(-c3ccc(Cl)cc3)nc2c2ccccc21,323 to 325
9,Cc1cccc(NC(=O)c2ccc(C(=O)N3Cc4cccn4Cc4ccccc43)cc2)c1C,239 to 240
10,CC(=O)NC[C@H]1CN(c2ccc(C3CCN(CC#N)CC3)c(F)c2)C(=O)O1,165 to 167
11,COc1ccc(C2C(N=[N+]=[N-])C(=O)N2c2ccc(C(=O)O)cc2)cc1 (stereo not drawn),127 to 129
12,CCNc1nc(N=[N+]=[N-])nc(NC(C)C(F)(F)F)n1 (stereo not drawn),69 to 75
13,Cc1c(C)c(N2Cc3ccccc3C2)c(C)c2c1OC(C)(C)C2c1ccccc1 (stereo not drawn),164 to 166
14,C[C@@H](n1ncn(-c2ccc(-n3ccn(-c4ccc(OCC(F)(F)C(F)F)cc4)c3=O)cc2)c1=O)[C@](O)(Cn1cncn1)c1ccc(F)cc1F,181 to 183
15,COc1cccc(N(CC(=O)N(C)c2ccccc2)C(=O)CNC(=O)Nc2cccc(CO)c2)c1,142
16,O=C1NC(c2ccccc2)(c2ccccc2)C(=O)N1COCc1ccccc1,151 to 152
17,Cc1ccc(-c2ccc(OC3SCC(O)C(O)C3O)cn2)cc1 (stereo not drawn),191
18,N#Cc1ccc(C(=O)N2CCN(c3ccncc3)CC2)cc1,164 to 165
19,CC(C)C1Nc2ccc(S(=O)(=O)N3CCCCC3)cc2S(=O)(=O)N1 (stereo not drawn),237 to 239
20,O=C1C(c2cccc(C(F)(F)F)c2)=C(NC2CC2)OC1c1ccccc1 (stereo not drawn),160 to 164
21,C1=C(c2c[nH]c3ccccc23)CCN(CC2COc3ccc4c(c3O2)OCCC4)C1 (stereo not drawn),140
22,C1=C(c2cc3ccccc3s2)CCC2(C1)CCNCC2,107 to 110

row,SMILES,melting point [°C]
1,CCOC(=O)C(C#N)=CC=CN(C)C,134 to 135
2,O=C(O)[C@H](Cc1ccc(C(F)(F)F)cc1)[C@@H](O)c1cccc(F)c1 (racemic),128 to 129
3,C=C(C)C(=O)N1c2ccc(OC)cc2CC1C(=O)O (stereo not drawn),108 to 111
4,CCn1cc(-c2ccc3c(c2)c(C2CCN(CCN4CCNC4=O)CC2)cn3-c2ccc(F)cc2)nn1,132 to 134
5,Cc1noc(NS(=O)(=O)c2ccccc2-c2ccc(-c3ncco3)cc2CN(C)C(=O)c2cc3ccccc3[nH]2)c1C,135 to 145
6,Cc1ccccc1C(=O)CN1C(=O)C(NC(=O)c2cc3ccccc3[nH]2)N=C(C2CCCCC2)c2cccc(C)c21 (racemic),127 to 145
7,CC1CC2CC(C)(CN2)C1(C)C(=O)C=CCO (stereo not drawn),72 to 75
8,O=C(c1ccccc1)C(O)C1OC(n2ccc(=O)[nH]c2=O)C(O)(C(=O)c2ccccc2)C1(O)C(=O)c1ccccc1 (stereo not drawn),119 to 120
9,O=Cc1ccccc1SSc1ccccc1C=O,145
10,Cc1cccc2nc3n(c12)CC(c1ccccn1)S3 (stereo not drawn),128 to 130
11,COc1ccc(-c2cnc3cc4cnn(Cc5ccccc5)c4cc3n2)cc1F,149 to 155
12,CS(=O)(=O)OCCc1c2ccccc2n2c1[nH]c(=O)c1ccccc12,196 to 198
13,O=C(O)CCc1cc2ccccc2c(-c2ccccc2)n1,146
14,COC(=O)c1cc(N)c(F)cc1Cl,76 to 78
15,CCCCCCCCCCCC(=O)c1c[nH]c2cc(C(=O)OC)ccc12,167 to 169
16,CCS(=O)(=O)c1cc(C(=O)NCC2CCCN2CCC2CC2)c(OC)cc1N (stereo not drawn),209
17,O=C(O)Cc1c(Cl)c(F)nc(F)c1Cl,157 to 159
18,CNC(=O)C(=NOC)c1ccccc1CO,100 to 102
19,Cc1ccc(S(=O)(=O)Nc2ccc3[nH]c(=O)c4ccccc4c3c2)cc1,199 to 203
20,CCC(CCNC(=O)C(C#N)=Cc1ccc(O)c(O)c1)NC(=O)C(C#N)=Cc1ccc(O)c(O)c1 (stereo not drawn),252
21,Cc1c(N=C2NCCN2)cc(Br)cc1NS(C)(=O)=O,262
22,CCc1c(Cc2[nH]c(C(=O)OCc3ccccc3)c(C)c2CCCO)[nH]c(Cc2[nH]c(C(=O)OCc3ccccc3)c(C)c2CCCO)c1CC,172 to 173

# Continued, values first:
row,melting point [°C],SMILES
1,182 to 184,CC1(C)OC(=O)C(=Cc2ccc(I)s2)C1=O
2,126 to 128,COc1ccc2c(c1)OCC(=Cc1cccnc1)C2=O
3,142 to 143,CN(CCF)C(=O)c1cc2ccccc2c(-c2ccccc2I)n1
4,132 to 134,CCCCOC(=O)c1ccc(F)nc1N
5,134 to 135,CC(Nc1ccc(Cl)c(Cl)c1)C(=O)NCC#N (stereo not drawn)
6,150 to 153,Cc1cccc(-c2cc(C(=O)O)n(C)n2)c1
7,70 to 75,COc1ccc(F)cc1C(C)(C)CC(O)(Cc1cccc(C(N)=O)c1)C(F)(F)F (stereo not drawn)
8,259 to 260,COc1cc2nc(N)nc(-c3cc(I)c(O)c(I)c3)c2cc1OC
9,96 to 97,CCOC(=O)CCNC=C(C(=O)OCC)C(=O)c1cc(F)c(F)c(F)c1F
10,130 to 132,Cc1ccc(CNC(=O)c2cc(Cl)cc3cc(C)oc23)cc1
11,87 to 92,COc1c(CC(=O)O)cccc1Oc1ccccc1Cl
12,> 300,CC1CC(=O)NN=C1c1ccc(C2=NNC(=O)CC2C)cc1 (stereo not drawn)
13,117 to 119,CCOc1ccc(C=C2N=C(C)OC2=O)cc1OCC
14,80 to 81,O=C1Cc2ccc(C3CCCCC3)cc2O1
15,95,COc1cc(C(=CN(C)C)C(C)=O)ccc1OCC(O)CN1CCN(c2ccccc2C)CC1 (stereo not drawn)
16,149 to 152,NS(=O)(=O)c1nc2ccc(OCC3CO3)cc2s1 (stereo not drawn)

row,melting point [°C],SMILES
1,139 to 140,Cc1c(CCC2CC(OC3CCCCO3)CC(=O)O2)c2c(c(C)c1OC(=O)c1ccccc1)CC(C)(C)O2 (stereo not drawn)
2,190 to 191,COC(=O)c1c(CN2CCC(S(C)(=O)=O)CC2)c(=O)c2ccc(F)cc2n1-c1ccccc1
3,224 to 227,COc1ccccc1-c1cc(O)c(-c2ccccc2C(=O)O)nn1
4,61 to 63,COCCOc1cc(NC(=O)OC(C)(C)C)c(NC(=O)CC(=O)c2cccc(-n3ccnc3)c2)cc1-c1ccc(F)cc1
5,97 to 99,CCCC(=O)Oc1ccc(C(O)CNC(C)(C)C)cc1OC(=O)CCC (stereo not drawn)
6,127 to 129,CCOC(=O)Cn1nnc2cc(-c3ncc(C(F)(F)F)cc3Cl)ccc21
7,73 to 74,COc1ccc2c(c1OC)CCC2=O
8,114 to 116,CCOC(=O)c1cnn(-c2ccc(Cl)cc2C(F)(F)F)c1N
9,170 to 171,COc1cc2[nH]c3c(OC)c(OC)ccc3c2cc1OC
10,229 to 230,COC(=O)c1ccc(Cc2cccc3ccc(C(=O)O)cc23)c(OC)c1
11,99 to 100,CCn1c(CO)nc(C(C)C)c1Sc1cccc(Cl)c1
12,142,Cc1cn(C(C)(C)C(=O)N(C)C)nc1-c1ccc(Cl)c(Cl)c1
13,94,Cc1nc2c(s1)Cc1cc(Cl)ccc1-2
14,135 to 136,CNC(=O)[C@@H]1O[C@H]1c1ccc(OC)cc1
15,220 to 222,CCNC(=O)c1ccc(Oc2c(C)n(CC(=O)O)c3ccc(F)cc23)cc1
16,207 to 209,COc1ccnc(CCc2nc3cc(Br)cnc3[nH]2)c1

# From a melting point compilation (Tetko et al.; mined from patent text by program, amines drawn as free bases though some values may be those of a salt)
